Assay results: patent US20130266636A1, “METHODS FOR BLOCKING CELL PROLIFERATION AND TREATING DISEASES AND CONDITIONS RESPONSIVE TO CELL GROWTH INHIBITION” (THE REGENTS OF THE UNIVERSITY OF CALIFORNIA, priority 2010, published 2013)

Columns and labels:
[1] = system: human breast (MDA-MB-231) carcinoma cell line; assay: Cell viability assay in MDA-MB-231 cells; assay type: cell-based
[2] = system: human breast (T47D) carcinoma cell line; assay: Cell viability assay in T47D cells; assay type: cell-based
CRAF [3] = biological target: T1, CRAF (Homo sapiens, UniProt P04049); assay: Phospho-S338 CRAF immunoblot in XPA-1 cells; assay type: cell-based; set-up: total CRAF and total MEK of lysates from XPA-1 cells treated with PD0325901, Sorafenib, L-779450, PLX4720, KG5 or KG1; endogenous in cells; host or cells: XPA-1
Experimental: (§1) FIGS. 6 and 7 illustrate immunoblot analysis of CRAF immunoprecipitated from XPA-1 cells treated with KG5 and KG38.
FIG. 13 illustrates immunoblot analysis of phospho-5338 CRAF, phospho-MEK, total CRAF and total MEK of lysates from XPA-1 cells treated with PD0325901, Sorafenib, L-779450, PLX4720, KG5 or KG1.
(§2) Immunoprecipitation and Immunoblot Analysis Cells were lysed in either NP40 lysis buffer (150 mM NaCl, 50 mM Tris Base pH 7.4, 1% NP40) or RIPA buffer (50 mM Tris pH 7.4, 100 mM NaCl, 0.1% SDS) supplemented with complete protease inhibitor mixture (Roche), 50 mM NaF and 1 mM Na3VO4 and centrifuged at 13,000×g for 10 min at 4° C. Protein concentration was determined by BCA assay. […] of protein were immunoprecipitated with […] of anti-Flag (Sigma), anti-CRAF (BD Pharmingen), anti-Plk1 (Abcam), anti-γ-Tubulin (sigma) or anti-cenpF (Santa Cruz) antibodies overnight at 4° C. followed by capture with 25 μl of protein A/G (Pierce). Beads were washed five times, eluted in boiling Laemmli buffer, resolved on 10% SDS-PAGE and immunoblotting was performed with anti-Plk1 antibody (Abcam), anti-CRAF antibody (BD Pharmingen), anti-Aurora A (Abcam), anti-phospho-S338 CRAF (Cell Signaling), anti-phospho-T210 Plk1 or anti-phospho-T288 Aurora A (Cell signaling) diluted 1:1000. For immunoblot analysis, […] of protein was boiled in […]
Target sequence in this assay (P04049 whole entry): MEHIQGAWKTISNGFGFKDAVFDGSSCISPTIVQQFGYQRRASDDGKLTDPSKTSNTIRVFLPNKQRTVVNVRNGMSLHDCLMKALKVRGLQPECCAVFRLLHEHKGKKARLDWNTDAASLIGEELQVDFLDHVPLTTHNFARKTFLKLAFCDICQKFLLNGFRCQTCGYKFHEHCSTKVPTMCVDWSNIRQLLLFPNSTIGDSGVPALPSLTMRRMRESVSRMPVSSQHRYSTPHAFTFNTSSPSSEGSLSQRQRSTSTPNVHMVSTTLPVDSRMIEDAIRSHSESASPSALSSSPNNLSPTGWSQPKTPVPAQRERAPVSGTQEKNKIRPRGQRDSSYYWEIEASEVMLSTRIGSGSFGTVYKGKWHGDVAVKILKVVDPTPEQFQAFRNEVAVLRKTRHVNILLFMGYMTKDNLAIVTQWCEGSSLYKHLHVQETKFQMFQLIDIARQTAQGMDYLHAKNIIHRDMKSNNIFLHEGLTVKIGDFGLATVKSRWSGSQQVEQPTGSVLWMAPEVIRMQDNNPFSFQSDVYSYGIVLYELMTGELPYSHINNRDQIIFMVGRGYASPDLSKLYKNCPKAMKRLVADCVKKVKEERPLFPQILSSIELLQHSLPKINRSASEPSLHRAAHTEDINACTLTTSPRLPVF

[4] = system: human lung (A549) carcinoma cell line; assay: Cell viability assay in A549 cells; assay type: cell-based
[5] = biological target: RAF dimerization (BRAF and CRAF) (Homo sapiens, UniProt P04049); assay: RAF dimerization, immunoblot of BRAF and CRAF immunoprecipitates from XPA-1 cells; assay type: cell-based; set-up: immunoblot analysis of BRAF and CRAF immunoprecipitates from XPA-1 cells; endogenous in cells; host or cells: XPA-1
Experimental: as §1
FIG. 14 illustrates immunoblot analysis of BRAF and CRAF immunoprecipitates from XPA-1 cells treated with PD0325901, Sorafenib, L-779450, PLX4720, KG5 or KG1.
as §2

CRAF [6] = biological target: T1, CRAF; conditions: 293H cells overexpressing catC, indicated amounts for 1 h; cited from earlier work
Target sequence in this assay (P04049 305-648 limits assumed, species assumed): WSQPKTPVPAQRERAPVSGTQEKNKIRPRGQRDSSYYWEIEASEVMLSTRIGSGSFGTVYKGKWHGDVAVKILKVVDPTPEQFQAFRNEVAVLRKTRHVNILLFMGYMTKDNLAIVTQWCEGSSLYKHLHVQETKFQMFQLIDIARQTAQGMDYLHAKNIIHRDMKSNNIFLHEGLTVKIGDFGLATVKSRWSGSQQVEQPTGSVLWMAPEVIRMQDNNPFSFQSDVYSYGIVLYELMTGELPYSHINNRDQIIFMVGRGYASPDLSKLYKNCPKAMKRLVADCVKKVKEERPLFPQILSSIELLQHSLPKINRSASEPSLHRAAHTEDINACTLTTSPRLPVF

A549 cells = assay: Cell proliferation assay in A549 cells; assay type: cell-based, human

Chain of RAF dimerization (BRAF and CRAF) (P04049 whole entry): as the sequence (P04049 whole entry) above

Row | potency relative to KG5 (cell viability EC50s) ([1]; MDA-MB-231) | EC50 ([1]; MDA-MB-231 breast cancer cell viability assays) | potency relative to KG5 (cell viability EC50s) ([2]; T47D) | EC50 ([2]; T47D breast cancer cells) | serine 338 phosphorylation on CRAF (CRAF [3]) | potency relative to KG5 (cell viability EC50s) ([4]; A549) | EC50 ([4]; A549 lung cancer cells) | RAF dimerization [5] | Compound | cell viability ([1]; MDA-MB-231) | cell viability ([2]; T47D) | cell viability ([4]; A549) | phosphorylation at S338 (pS338-CRAF immunoblot) (CRAF [6]) | cell proliferation (A549 cells)
1 | more potent than KG5 | approach picomolar (pM) EC50s | more potent than KG5 | approach picomolar (pM) EC50s | prevent | more potent than KG5 | approach picomolar (pM) EC50s | prevent RAF dimerization | CSc1nc(N)cc(Oc2ccc(-c3cnc(Nc4cccc(C(F)(F)F)c4)[nH]3)cc2)n1 [K38-B] | decrease cell viability | decrease cell viability | decrease cell viability |  | 
2 |  |  |  |  |  |  |  |  | CCCS(=O)(=O)Nc1ccc(F)c(C(=O)c2c[nH]c3ncc(Cl)cc23)c1F [PLX4720] |  |  |  | steadily increased | induce proliferation
